Values of other authors in patent publication US4407746A, “Cyclohexyl and phenyl substituted enkephalins” (G. D. Searle & Co., priority 1981, dated 1983).

Tests used:
[1] = system: brain opiate receptor sites; conditions: partially purified brain opiate receptor sites; Bradberry et al. 1976
rat = conditions: injected directly into the brain of the rat; Belluzi et al. 1976

For methionine enkephalin, the “binding to brain opiate receptor sites” value [1] is given as “binds sterospecifically” and the analgesic activity (rat) is given as “weak, fleeting analgesic activity”.
